# Reference: paper PMC9837035 (Nature Communications, 2023)
# pIC50: −log10 of the molar value. “And” between values parts separate entries of the source, which are not always exact repeats. Identical values can stand only once.
# Columns and labels:
# [1] = system: BGLT3 RNA in HUDEP-2 cells; experiment: RT-qPCR of BGLT3 in HUDEP-2 cells; assay type: cell-based, human; settings: for BGLT3 expression in HUDEP-2 cells: relative to DMSO = 1, replicate values; for BGLT3 expression: HUDEP-2
# Experimental: (§1) Total cellular RNA was prepared using the Tissue Total RNA Mini Kit (FAVORGEN), and cDNA was synthesized using ReverTra Ace Master Mix (TOYOBO). Expression of target genes was analyzed using THUNDERBIRD SYBR qPCR Mix (TOYOBO) on a CFX Connect Real Time System (Bio-Rad). The qPCR data were acquired on CFX Maestro (Bio-Rad). Primers are listed in Supplementary Table 10. GAPDH was used as a reference. Primers were purchased from INTEGRATED DNA TECHNOLOGIES or FASMAC.
# HUDEP-2 cells = experiment: Cell viability assay (WST-8), HUDEP-2; assay type: cell-based, human; settings: for cell viability in HUDEP-2 cells: control (0 μM) = 100; for cytotoxic effect on viability: HUDEP-2, 3 days
# Experimental: (§2) A WST-8 (2-(2-methoxy-4-nitrophenyl)-3-(4-nitrophenyl)-5-(2,4-disulfophenyl)-2H-tetrazolium) assay using a Cell Counting Kit-8 (DOJINDO) was performed to measure cell viability using an EnSpire microplate reader (PerkinElmer).
# [2] = system: β- and γ-globin genes in HUDEP-2 cells; experiment: RT-qPCR of β- and γ-globin in HUDEP-2 cells; assay type: cell-based, human; settings: for β-globin expression in HUDEP-2 cells / γ-globin expression in HUDEP-2 cells: relative to DMSO = 1, replicate values; for γ-globin mRNA level: HUDEP-2
# Experimental: as §1
# H3K9me2 in HUDEP-2 cells = experiment: Western blotting of H3K9me2 in HUDEP-2 cells; assay type: cell-based, human; settings: HUDEP-2, 4 days
# Experimental: Preparation of cell lysates and western blotting were performed as described previously. Protein from cells lysates in lysis buffer (50 mM Tris-HCl (pH 7.5), 150 mM NaCl, 5 mM EDTA, 0.1% NP-40, 1 mM dithiothreitol) were separated by sodium dodecyl sulfate–polyacrylamide gel electrophoresis (SDS-PAGE) and transferred to a polyvinylidene difluoride (PVDF) membrane (Millipore) by electroblotting. The membranes incubated with primary antibodies overnight at 4 °C and secondary antibodies for 1 h at room temperature. The immune complexes were detected with the Immobilon Western Chemiluminescent HRP Substrate (Millipore). Luminescence was analyzed on a FUSION SOLO S (Vilber). Western blot bands were visualized using Evolution Capt software (M&S Instruments Inc.). Primary antibodies used were anti-G9a (1:1000, CST, #3306), anti–α-tubulin (1:5000, Abcam, ab18251), anti-H3K9me2 (1:3000, Abcam, ab1220), anti-H3 (1:5000, Abcam, ab1791), anti-H3K27me3 (1:3000, Sigma, 07-449), anti-GLP (1:1000, CST, #35005), anti-FLAG (100 ng/ml, Fujifilm, 01422383), anti-His (1:5000, MBL, PM032), anti-BCL11A (1:1000, abcam, ab19487), anti-ZBTB7A (1:1000, CST, #50565), anti-CHD3 (1:1000, Novus Biologicals, NB100-60412), and anti-CHD4 (1:1000, abcam, ab240640). Uncropped scans of all of the blots are available in Source Data file.
# NSD3 = target: T1, NSD3 (Homo sapiens, UniProt Q9BZ95); experiment: Radioisotope-based methyltransferase assay (selectivity); assay type: biochemical
# T1 construct: purchased Reaction Biology
# T1 sequence (Q9BZ95 1-1437): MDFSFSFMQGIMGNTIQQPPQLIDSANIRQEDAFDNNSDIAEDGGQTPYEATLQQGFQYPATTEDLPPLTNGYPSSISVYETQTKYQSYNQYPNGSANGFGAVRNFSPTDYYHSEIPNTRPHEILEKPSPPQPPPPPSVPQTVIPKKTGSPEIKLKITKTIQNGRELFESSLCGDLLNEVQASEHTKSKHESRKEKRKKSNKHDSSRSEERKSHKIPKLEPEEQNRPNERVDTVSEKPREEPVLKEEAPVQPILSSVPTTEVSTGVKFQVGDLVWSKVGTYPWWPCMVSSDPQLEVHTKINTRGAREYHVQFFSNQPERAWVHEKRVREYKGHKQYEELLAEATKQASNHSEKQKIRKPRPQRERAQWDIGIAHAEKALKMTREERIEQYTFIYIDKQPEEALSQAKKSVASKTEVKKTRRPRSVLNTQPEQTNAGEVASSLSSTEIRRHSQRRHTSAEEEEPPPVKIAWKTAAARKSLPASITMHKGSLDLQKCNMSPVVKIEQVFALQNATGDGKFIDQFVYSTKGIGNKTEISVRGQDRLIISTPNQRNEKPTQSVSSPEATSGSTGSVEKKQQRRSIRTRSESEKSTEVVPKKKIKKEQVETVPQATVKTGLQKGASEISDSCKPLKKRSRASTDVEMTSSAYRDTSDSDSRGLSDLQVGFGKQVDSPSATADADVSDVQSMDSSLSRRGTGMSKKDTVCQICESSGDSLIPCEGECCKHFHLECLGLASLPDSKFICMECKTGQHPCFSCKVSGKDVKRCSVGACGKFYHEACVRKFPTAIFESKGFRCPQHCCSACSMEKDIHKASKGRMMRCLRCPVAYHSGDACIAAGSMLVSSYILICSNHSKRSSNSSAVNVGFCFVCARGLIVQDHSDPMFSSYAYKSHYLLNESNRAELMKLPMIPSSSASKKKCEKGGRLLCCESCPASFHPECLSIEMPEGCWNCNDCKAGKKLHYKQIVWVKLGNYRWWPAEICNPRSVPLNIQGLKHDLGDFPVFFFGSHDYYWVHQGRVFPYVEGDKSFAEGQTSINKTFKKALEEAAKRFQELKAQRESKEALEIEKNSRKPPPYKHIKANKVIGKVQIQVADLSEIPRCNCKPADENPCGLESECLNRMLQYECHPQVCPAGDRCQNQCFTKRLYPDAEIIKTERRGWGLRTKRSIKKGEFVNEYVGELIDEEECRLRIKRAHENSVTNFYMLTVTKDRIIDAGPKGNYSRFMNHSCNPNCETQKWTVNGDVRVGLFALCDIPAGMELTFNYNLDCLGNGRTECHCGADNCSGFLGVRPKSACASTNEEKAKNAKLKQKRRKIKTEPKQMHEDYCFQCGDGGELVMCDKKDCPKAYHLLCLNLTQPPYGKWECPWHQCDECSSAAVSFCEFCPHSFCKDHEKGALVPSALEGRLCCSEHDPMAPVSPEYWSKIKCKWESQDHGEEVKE
# PRDM9 = target: T2, PRDM9 (Homo sapiens, UniProt Q9NQV7); experiment: as above; assay type: biochemical
# T2 construct: purchased Reaction Biology
# T2 sequence (Q9NQV7 whole entry): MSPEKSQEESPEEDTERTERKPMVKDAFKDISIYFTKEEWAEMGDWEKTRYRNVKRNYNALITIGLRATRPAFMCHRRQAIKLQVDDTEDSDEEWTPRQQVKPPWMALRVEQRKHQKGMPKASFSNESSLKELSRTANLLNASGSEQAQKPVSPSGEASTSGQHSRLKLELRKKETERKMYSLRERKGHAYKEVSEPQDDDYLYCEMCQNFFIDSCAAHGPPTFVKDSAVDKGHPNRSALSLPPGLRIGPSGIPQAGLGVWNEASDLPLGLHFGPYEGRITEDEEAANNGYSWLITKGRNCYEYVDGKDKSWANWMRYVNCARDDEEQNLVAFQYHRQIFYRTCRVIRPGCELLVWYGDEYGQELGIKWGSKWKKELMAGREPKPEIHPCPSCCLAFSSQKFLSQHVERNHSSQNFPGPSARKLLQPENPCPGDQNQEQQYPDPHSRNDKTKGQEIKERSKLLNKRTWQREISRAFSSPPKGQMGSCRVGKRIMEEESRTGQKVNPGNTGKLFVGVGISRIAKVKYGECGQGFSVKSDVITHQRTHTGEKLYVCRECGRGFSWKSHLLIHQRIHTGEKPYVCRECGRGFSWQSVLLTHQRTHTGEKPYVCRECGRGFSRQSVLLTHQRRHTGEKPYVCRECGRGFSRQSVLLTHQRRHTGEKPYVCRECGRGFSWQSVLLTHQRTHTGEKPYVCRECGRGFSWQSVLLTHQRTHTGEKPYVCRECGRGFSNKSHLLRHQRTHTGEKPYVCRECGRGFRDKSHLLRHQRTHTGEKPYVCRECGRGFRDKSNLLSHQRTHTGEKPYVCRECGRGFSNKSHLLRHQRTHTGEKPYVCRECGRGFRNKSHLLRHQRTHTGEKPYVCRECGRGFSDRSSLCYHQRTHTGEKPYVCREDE
# ASH1L = target: T3, ASH1L (Homo sapiens, UniProt Q9NR48); experiment: as above; assay type: biochemical; settings: IC50, ASH1L
# T3 construct: purchased Reaction Biology
# [3] = Cell viability assay (WST-8), H9c2; assay type: cell-based, rat; settings: rat, H9c2 myoblast cells, control (0 μM) = 100
# Experimental: as §2
# [4] = system: rat myoblast cell line H9c2; experiment: Cell viability assay (WST-8), H9c2; assay type: cell-based; settings: control (0 μM) = 100
# Experimental: as §2
# [5] = Cell viability assay (WST-8), HUDEP-2; assay type: cell-based, human; settings: human, HUDEP-2 cells, control (0 μM) = 100
# Experimental: as §2
# mice = experiment: Mouse acute toxicity assay, survival; assay type: in vivo; settings: intravenous, 2-week observation
# Experimental: All animal studies were approved by the Institutional Committee for Animal Experiments of the Institute of Microbial Chemistry, and were performed in accordance with relevant guidelines and regulations to minimize animal suffering. Four-week-old female ICR mice were purchased from Charles River Breeding Laboratories (Yokohama, Japan) and maintained in a specific pathogen-free barrier facility. […] Samples were dissolved in saline containing 10% DMSO and 1% Tween 80 and injected intravenously into mice.
smiles,measurement,setting,value
COc1cc2c(NC3CCN(C)CC3)cc(-c3ccc(C)o3)nc2cc1OCCCN1CCCC1 [CM-272],BGLT3 expression in HUDEP-2 cells,[1]; 0.01 μM,1.264 and 1.918 and 0.9309
same,BGLT3 expression in HUDEP-2 cells,[1]; 0.03 μM,0.9121 and 1.179 and 0.9824
same,BGLT3 expression in HUDEP-2 cells,[1]; 0.1 μM,0.6878 and 0.8395 and 1.055
same,BGLT3 expression in HUDEP-2 cells,[1]; 0.3 μM,4.167 and 3.251 and 2.85
same,BGLT3 expression in HUDEP-2 cells,[1]; 1 μM,9.88 and 9.285 and 7.11
same,BGLT3 expression,[1],induced the expression of both BGLT3 and γ-globin
same,cell viability in HUDEP-2 cells,HUDEP-2 cells; 0.123457 μM,108.704 and 95.321 and 98.9654
same,cytotoxic effect on viability,HUDEP-2 cells,severe cell toxicity
same,β-globin expression in HUDEP-2 cells,[2]; 0.01 μM,1.0071 and 1.036 and 1.465
same,γ-globin expression in HUDEP-2 cells,[2]; 0.01 μM,1.193 and 1.0465 and 1.534
same,β-globin expression in HUDEP-2 cells,[2]; 0.03 μM,0.9553 and 1.237 and 1.08
same,γ-globin expression in HUDEP-2 cells,[2]; 0.03 μM,1.464 and 1.528 and 1.418
same,β-globin expression in HUDEP-2 cells,[2]; 0.1 μM,1.5931 and 1.663 and 1.768
same,γ-globin expression in HUDEP-2 cells,[2]; 0.1 μM,5.304 and 3.7722 and 4.868
same,β-globin expression in HUDEP-2 cells,[2]; 0.3 μM,1.078 and 1.725 and 1.22
same,γ-globin expression in HUDEP-2 cells,[2]; 0.3 μM,5.583 and 7.681 and 5.641
same,β-globin expression in HUDEP-2 cells,[2]; 1 μM,1.093 and 1.321 and 1.148
same,γ-globin expression in HUDEP-2 cells,[2]; 1 μM,3.245 and 3.178 and 3.329
same,γ-globin mRNA level,[2],induced the expression of both BGLT3 and γ-globin
same,cellular H3K9me2 levels,H3K9me2 in HUDEP-2 cells,reduction of H3K9me2 levels
"CN1C(=O)[C@@]23C[C@]4([C@]56C[C@@]78SS[C@@](CO)(C(=O)N7[C@H]5Nc5ccccc56)N(C)C8=O)c5ccccc5N[C@@H]4N2C(=O)[C@]1(CO)SS3 [Chaetocin, reference compound]",pIC50,"NSD3; IC50, NSD3, 1 μM SAM",6.82
same,pIC50,"NSD3; IC50, NSD3, RK-701 in duplicate",6.82
same,pIC50,"PRDM9; IC50, PRDM9, 1 μM SAM",4.87
same,pIC50,"PRDM9; IC50, PRDM9, RK-701 in duplicate",4.87
same,pIC50,ASH1L; 1 μM SAM,7.03
same,pIC50,ASH1L; RK-701 in duplicate,7.03
COc1cc2c(NC3CCN(C(C)C)CC3)nc(C3CCCCC3)nc2cc1OCCCN1CCCC1 [UNC0638],BGLT3 expression in HUDEP-2 cells,[1]; 0.01 μM,1.173 and 1.9605 and 1.436
same,BGLT3 expression in HUDEP-2 cells,[1]; 0.03 μM,1.045 and 1.983 and 1.934
same,BGLT3 expression in HUDEP-2 cells,[1]; 0.1 μM,1.162 and 3.201 and 2.863
same,BGLT3 expression in HUDEP-2 cells,[1]; 0.3 μM,3.578 and 5.267 and 5.078
same,BGLT3 expression,[1],induced the expression of both BGLT3 and γ-globin
same,viability at 0.156 μM,[3]; 0.156 μM,90.4%
same,viability at 0.625 μM,[3]; 0.625 μM,92.4%
same,cell viability in H9c2 cells,[4]; 0.039 μM,83.333 and 114.948 and 83.569
same,cell viability in H9c2 cells,[4]; 0.156 μM,95.490 and 88.952
same,cell viability in H9c2 cells,[4]; 0.625 μM,87.887 and 83.853
same,cell viability in HUDEP-2 cells,HUDEP-2 cells; 0.00457247 μM,93.1765 and 99.8296
same,cell viability in HUDEP-2 cells,HUDEP-2 cells; 0.0137174 μM,92.549 and 98.1261
same,cell viability in HUDEP-2 cells,HUDEP-2 cells; 0.0411523 μM,91.9216 and 96.0818
same,cell viability in HUDEP-2 cells,HUDEP-2 cells; 0.123457 μM,90.9804 and 93.0153
same,cell viability in HUDEP-2 cells,HUDEP-2 cells; 0.37037 μM,82.1961 and 79.7274
same,cell viability in HUDEP-2 cells,HUDEP-2 cells; 1.11111 μM,35.1373 and 35.4344
same,cell viability in HUDEP-2 cells,HUDEP-2 cells; 10 μM,4.078 and 3.407
same,cytotoxic effect on viability,HUDEP-2 cells,severe cell toxicity
same,viability at 0.00457247 μM,[5]; 0.00457247 μM,97.7%
same,viability at 0.0137174 μM,[5]; 0.0137174 μM,96.8%
same,viability at 0.0411523 μM,[5]; 0.0411523 μM,103%
same,viability at 0.123457 μM,[5]; 0.123457 μM,98.7%
same,viability at 0.37037 μM,[5]; 0.37037 μM,83.3%
same,viability at 1.11111 μM,[5]; 1.11111 μM,36%
same,viability at 10 μM,[5]; 10 μM,2.19%
same,Number of alive mice,mice; 1.5625 mg/kg,3/3
same,Number of alive mice,mice; 3.125 mg/kg,3/3
same,Number of alive mice,mice; 6.25 mg/kg,0/3
same,Number of alive mice,mice; 12.5 mg/kg,0/3
same,Number of alive mice,mice; 25 mg/kg,0/3
same,β-globin expression in HUDEP-2 cells,[2]; 0.01 μM,1.0792 and 0.9641 and 1.119
same,γ-globin expression in HUDEP-2 cells,[2]; 0.01 μM,2.161 and 1.8663 and 1.942
same,β-globin expression in HUDEP-2 cells,[2]; 0.03 μM,0.8727 and 0.8955 and 0.9796
same,γ-globin expression in HUDEP-2 cells,[2]; 0.03 μM,2.931 and 2.632 and 2.938
same,β-globin expression in HUDEP-2 cells,[2]; 0.1 μM,0.7919 and 0.6648 and 0.9576
same,γ-globin expression in HUDEP-2 cells,[2]; 0.1 μM,3.187 and 2.85 and 3.299
same,β-globin expression in HUDEP-2 cells,[2]; 0.3 μM,0.6454 and 0.4522 and 0.612
same,γ-globin expression in HUDEP-2 cells,[2]; 0.3 μM,4.136 and 2.987 and 3.803
same,γ-globin mRNA level,[2],induced the expression of both BGLT3 and γ-globin
same,cellular H3K9me2 levels,H3K9me2 in HUDEP-2 cells,reduction of H3K9me2 levels
